Measurements published in paper doi:10.1101/2021.06.28.449968v1 (biorxiv, 2021).

Biological target: T1, full-length Abl1 NanoLuc fusion (Abl1-Nluc, NLuc-Abl1) (Homo sapiens, UniProt P00519)
T1 construct: full-length Abl1 fused to the C-terminus of NanoLuc luciferase (Promega plasmid), transiently expressed in HEK293T cells
Experiment: NanoBRET tracer isotherm in live HEK293T cells
Type: cell-based
Settings: labelled compound; […] h; ATP site; read-out: Kd,app
From the text: NanoBRET tracer isotherm in live HEK293T cells on full-length Abl1 NanoLuc fusion (Abl1-Nluc, NLuc-Abl1) | tracer probe (K-4, Promega), suitable for all mutants

T1 sequence (P00519 whole entry, the tested form may be a part): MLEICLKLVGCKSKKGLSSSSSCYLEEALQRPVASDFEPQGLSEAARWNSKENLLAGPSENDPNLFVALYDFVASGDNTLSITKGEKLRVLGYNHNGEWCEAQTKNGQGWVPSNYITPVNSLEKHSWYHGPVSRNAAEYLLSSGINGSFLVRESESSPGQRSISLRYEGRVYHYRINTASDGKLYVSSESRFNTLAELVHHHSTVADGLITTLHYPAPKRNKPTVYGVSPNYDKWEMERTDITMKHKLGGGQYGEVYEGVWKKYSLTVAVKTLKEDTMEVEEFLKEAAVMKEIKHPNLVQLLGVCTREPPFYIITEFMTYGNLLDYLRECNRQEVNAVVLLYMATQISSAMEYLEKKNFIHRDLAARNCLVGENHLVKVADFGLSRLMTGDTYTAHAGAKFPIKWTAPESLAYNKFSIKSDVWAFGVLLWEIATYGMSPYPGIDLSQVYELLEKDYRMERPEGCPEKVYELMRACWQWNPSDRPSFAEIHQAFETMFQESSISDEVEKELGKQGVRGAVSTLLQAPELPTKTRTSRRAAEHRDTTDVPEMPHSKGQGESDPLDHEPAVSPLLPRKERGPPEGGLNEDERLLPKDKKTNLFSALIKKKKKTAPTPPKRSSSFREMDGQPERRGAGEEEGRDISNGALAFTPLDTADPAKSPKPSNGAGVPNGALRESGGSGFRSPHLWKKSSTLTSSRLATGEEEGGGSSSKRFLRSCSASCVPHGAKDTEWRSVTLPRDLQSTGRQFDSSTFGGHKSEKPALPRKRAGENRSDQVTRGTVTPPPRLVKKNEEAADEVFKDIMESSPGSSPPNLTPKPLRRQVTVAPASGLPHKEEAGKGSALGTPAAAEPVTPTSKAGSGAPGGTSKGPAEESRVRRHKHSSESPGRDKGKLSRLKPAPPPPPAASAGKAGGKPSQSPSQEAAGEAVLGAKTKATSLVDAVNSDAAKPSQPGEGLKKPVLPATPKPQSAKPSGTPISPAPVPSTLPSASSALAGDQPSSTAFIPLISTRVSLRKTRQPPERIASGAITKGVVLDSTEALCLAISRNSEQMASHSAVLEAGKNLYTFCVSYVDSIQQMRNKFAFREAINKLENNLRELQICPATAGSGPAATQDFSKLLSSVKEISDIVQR

Substance: NanoBRET tracer K-4 (Promega)
- Kd: 38.6 nM
